The subject of one data set is K562. The data set is described as follows: In vitro chemosensitivity, microtetrazolium (MTT) assay, K562. The format is cell-based. As to conditions: K562 human chronic myelogenous leukaemia, concentration reducing growth rate by 50% of untreated control. The protocol: (§1) The cytotoxic properties of selected examples were evaluated against a panel of established human tumour cell lines.
(§2) K562--a human chronic myelogenous leukaemia (Lozzio and Lozzio, 1975). HRT--18--a human primary adenocarcinoma from the human rectum (Tompkins et al, 1974).
(§3) Chemosensitivity in vitro was assessed using the microtetrazolium assay (MTT assay) (Twentyman & Luscombe, 1987).
(§4) Examples were soluble in 5% ethanol/saline. To each well, 20 μl of drug solution was added to give a final drug concentration of 0.1-100 μg/ml at four log increments. Solvent controls were used throughout, and the first row of each plate contained media plus drug in the absence of any cells. Each point is the result of three separate experiments and cytotoxic effects are expressed in terms of percent survival, taking the optical density of the control plates to represent 100% survival.
(§5) IC50 values are the average concentrations of drug required to reduce the growth rate by 50% of the untreated control system.

For another data set, the system named is HCLO. The data set is described as follows: In vitro chemosensitivity, microtetrazolium (MTT) assay, HCLO. To be noted: concentration reducing growth rate by 50% of untreated control. Type of data set: cell-based, human. As for the experimental part:
as §1
(§6) HT-29 primary adenocarcinomas of the human colon.
as §3, §4, §5

The test system of a further data set is HRT-18. The data set is described as follows: In vitro chemosensitivity, microtetrazolium (MTT) assay, HRT-18. Type of data set: cell-based. To be noted: HRT-18 human rectum adenocarcinoma, concentration reducing growth rate by 50% of untreated control. The protocol: as §1, §2, §3, §4, §5
The next data set deals with HT-29. The data set is described as follows: In vitro chemosensitivity, microtetrazolium (MTT) assay, HT-29. The format is cell-based. To be noted: HT-29 human colon adenocarcinoma, concentration reducing growth rate by 50% of untreated control. The protocol:
as §1, §6, §3, §4, §5

The next data set relates to DLD-1. Briefly: In vitro chemosensitivity, microtetrazolium (MTT) assay, DLD-1. To be noted: DLD-1 human colon adenocarcinoma, concentration reducing growth rate by 50% of untreated control. The format is cell-based. The protocol: as §1, §6, §3, §4, §5
The test system of a further data set is rodents. As to conditions: in rodents; cited from earlier work.
Another data set has as its system man. As to conditions: in man; cited from earlier work.

The term IC50 denotes the midpoint of a concentration-inhibition curve. Turning to `N[C@H](Cc1ccccc1)C(=O)NCCCCNc1cccc2c1C(=O)c1ccccc1C2=O` [Example 20, 1-[(4-D-phenylalanylaminobutyl)amino]-anthracene-9,10-dione], the IC50 came to 22.8 µM in the data set on K562; 21.4 µM with HCLO (Homo sapiens); 16.8 µM with HRT-18; 14.2 µM in the data set with HT-29; 8.6 µM in the data set with DLD-1.
In the case of `COc1cccc2c1C(=O)c1c(O)c3c(c(O)c1C2=O)C[C@@](O)(C(=O)CO)C[C@@H]3O[C@H]1C[C@H](N)[C@H](O)[C@H](C)O1` [doxorubicin], the maximum dose was 5 mg/kg in the data set on rodents and 1 to 2 mg/kg in the data set on man.
Take `N[C@@H](Cc1ccc(O)cc1)C(=O)NCCCNc1cccc2c1C(=O)c1ccccc1C2=O` [Example 15, 1-[3-(L-tyrosinylaminopropyl)amino]-anthracene-9,10-dione]: the IC50 with K562 was 14.2 µM; in the data set with HCLO, 6.7 µM; with HRT-18, 3 µM; in the data set with HT-29 it was 0.6 µM; in the data set with DLD-1, 2.1 µM.
As to `CSCC[C@H](N)C(=O)NCCCNc1cccc2c1C(=O)c1ccccc1C2=O` [Example 12], the IC50 in the data set on K562 was found to be 17.2 µM; in the data set on HCLO it was 11.8 µM; in the data set with HRT-18, 10.4 µM; with HT-29, 7.8 µM; in the data set on DLD-1, 4.1 µM.
`CC(C)(C)OC(=O)N[C@H](Cc1ccccc1)C(=O)NCCCNc1cccc2c1C(=O)c1ccccc1C2=O` [Example 18, 1-[(3-N-tertiarybutoxycarbonyl-D-phenylalanylamino-propyl)amino]-anthracene-9,10-dione]: the IC50 with K562 is 19.8 µM; with HCLO it was 17.4 µM; in the data set on HRT-18 it was 7.7 µM; with HT-29, 2.5 µM; with DLD-1 it was 13.2 µM.
